# Test results reported in patent US11006600B2, “Rice cultivar designated ‘CL272’” (Board of Supervisors of Louisiana State University and …, priority 2016, dated 2021).
# System: rice cultivar 'CL272'
# Assay: Herbicide tolerance and susceptibility characteristics of rice variety 'CL272'
# Type: in vivo, Oryza sativa
# Conditions: at levels of the herbicide that would normally inhibit the growth of a rice plant
# Excerpt: Among others, the herbicide tolerance and susceptibility characteristics of ‘CL272’ include or are expected to include the following. These characteristics are in some cases based on actual observations to date, and in other cases reflect assumptions based on direct descent from ‘CL161’: […]
row,SMILES,response of 'CL272' rice to the herbicide (resistant / sensitive)
1,CCOC(=O)c1ccccc1S(=O)(=O)NC(=O)Nc1nc(Cl)cc(OC)n1 [chlorimuron ethyl],sensitive
2,COCc1cnc(C2=NC(C)(C(C)C)C(=O)N2)c(C(=O)O)c1 (centres unmarked) [imazamox],resistant
3,Cc1cnc(C2=NC(=O)C(C)(C(C)C)N2)c(C(=O)O)c1 (centres unmarked) [imazapic],resistant
4,CC(C)C1(C)N=C(c2ncccc2C(=O)O)NC1=O (centres unmarked) [imazapyr],resistant
5,CC(C)C1(C)N=C(c2nc3ccccc3cc2C(=O)O)NC1=O (centres unmarked) [imazaquin],resistant
6,CCc1cnc(C2=NC(C)(C(C)C)C(=O)N2)c(C(=O)O)c1 (centres unmarked) [imazethapyr],resistant
7,COC(=O)c1ccccc1S(=O)(=O)NC(=O)Nc1nc(C)nc(OC)n1 [metsulfuron methyl],resistant
8,COc1cc(OC)nc(NC(=O)NS(=O)(=O)c2ncccc2C(=O)N(C)C)n1 [nicosulfuron],resistant
9,CCS(=O)(=O)c1cccnc1S(=O)(=O)NC(=O)Nc1nc(OC)cc(OC)n1 [rimsulfuron],sensitive
10,COC(=O)c1ccccc1S(=O)(=O)NC(=O)Nc1nc(C)cc(C)n1 [sulfometuron methyl],sensitive
11,COC(=O)c1sccc1S(=O)(=O)NC(=O)Nc1nc(C)nc(OC)n1 [thifensulfuron methyl],resistant
12,COC(=O)c1ccccc1S(=O)(=O)NC(=O)N(C)c1nc(C)nc(OC)n1 [tribenuron methyl],resistant

# Same assay, conditions: in vivo
row,SMILES,"resistance of 'CL272' rice to imidazolinone herbicides, general statement"
1,COCc1cnc(C2=NC(C)(C(C)C)C(=O)N2)c(C(=O)O)c1 (centres unmarked) [imazamox],highly resistant
2,CCc1cnc(C2=NC(C)(C(C)C)C(=O)N2)c(C(=O)O)c1 (centres unmarked) [imazethapyr],highly resistant
